Laboratory results: US10413545B2, “Imidazolin-5-one derivative useful as FASN inhibitors for the treatment of cancer” (Janssen Pharmaceutica NV, priority 2013, dated 2019)
Where two headings read alike, the source gives them in different places. Blank lines part the entries; values can stand above or below the compound they belong to.

Columns and labels:
Format in all cases: cell-based
A2780 ovarian cells = test: A2780 Ovarian Cell Proliferation Assay in Lipid Reduced Medium, with and without Palmitate (MTT); conditions: Homo sapiens, 10% lipid-reduced serum, 96 h
Description: The biological assays described below correspond to comparative assays for ovarian cell proliferation.
2500 cells were seeded in a 96-well clear well plate in 200 μL RPM11640 with 10% Fetal Calf Serum (Hyclone), and incubated at 37° C., 5% CO2, Blanks were wells without cells. The next day the culture medium was aspirated and replaced by 160 μL culture medium with 10% Lipid-Reduced Serum (LRS, Hyclone). […] After 96 h incubation, an MTT assay was performed.
2500 cells were seeded in a 96-well clear well plate in 200 μL RPM11640 with 10% Fetal Calf Serum (Hyclone), and incubated at 37° C., 5% CO2. Blanks were wells without cells. The next day the culture medium was aspirated and replaced by 160 μL culture medium with 10% Lipid-Reduced Serum (LRS, Hyclone). 20 μL test compound (at concentrations of 30 μM, 10 μM, 3 μM, 1 μM, 0.30 μM, 0.10 μM, 0.03 μM and 0.01 μM)/DMSO dilution followed by 20 μL ethanol-BSA solution were added to a final concentrations of 0.2% DMSO, 0.2% fatty-acid-free BSA, 0.25% ethanol. After 96 h incubation an MTT assay was performed.
Raw data generated by the instrument were normalized to % Controlmin values, which were calculated as: % Controlmin=100*(x−mLC)/(mHC−mLC)
where mLC and mHC were the means of the low control wells and high control wells on the plate, after manual exclusion of outliers. A plot of Controlmin versus test compound concentration was fitted to a 4-parameter logistic curve using a non-linear least squares regression method.

[1] = system: LNCaP_Vancouver prostate cells; test: In Vitro LNCaP Vancouver Prostate Cell Proliferation Assay in Lipid Reduced Medium; conditions: Prostate cell; 10% lipid reduced serum, 96 h, ATP-glow luminescence; read-out: pIC50 LNCaP_Vancouver prostate cell (converted)
Description: LNCaP_Vancouver prostate cells were obtained from the Vancouver Prostate Cancer Centre.
(§1) The next day 10 μl of test compound/DMSO diluted in medium was added (3E-5M, 1E-5M, 3E-6M,1E-6M, 3E-7M, 1E-7M, 3E-8M, 1E-8M final concentration). Compounds were tested in duplicate. After 96 h incubation at 37° C., 5% CO2 25 μl ATP-glow mix was added. The plate was incubated for 30 min at 37° C. and luminescence was measured with the Envision.
(§2) Analysis: Determination of pIC50 Values
(§3) pIC50 values were calculated as follows. Raw data generated by the instruments were normalized to % Controlmin values, which were calculated as: % Controlmin=100*(x−mLC)/(mHC−mLC),
(§4) where mLC and mHC are the means of the low control wells and high control wells on the plate, after manual exclusion of outliers. The relation between the % Controlmin values and concentration was fitted to a 4-parameter logistic curve using a non-linear least squares regression method to determine the pIC50 value. Outlying data points were excluded manually to get a correct fit. The pIC50 corresponds to −log 10(IC50), if the IC50 is expressed in molar units (http://www.ncbi.nlm.nih.qovibooks/NBK91994). The IC50 parameter was always determined by non-linear regression, but one or more of the other parameters may have been held fixed on a relevant input value, such as 0 for the bottom values.

[2] = system: PC-3M-Luc-C6 prostate cells; test: In Vitro PC-3M-Luc-C6 Prostate Cell Proliferation Assay in Lipid Reduced Medium; conditions: Prostate cell, read-out: pIC50 PC-3M-Luc-C6 prostate cell (converted); 10% lipid reduced serum, 96 h, ATP-glow luminescence
Description: PC-3M-Luc-C6 prostate cells were obtained from Xenogen Corporation. Cells were maintained in MEM supplemented with 10% Fetal Calf Serum (FCS, Hyclone), 2 mM glutamine, 1 mM sodium pyruvate, 1% BME vitamins (available from for example, Sigma Aldrich), 0.1 mM non Essential Amino Acid and 50 μg/ml Gentamicin. The cells were passaged twice a week.
as §1, with “μl” for “μl of”
as §2, §3, §4

[3] = 25 μM palmitate added (control), read-out: pIC50 With Palmitate (converted)
[4] = no palmitate, read-out: pIC50 Without Palmitate (converted)

SMILES: Cn1ncc2cc(-c3ccc(C4=NC(C)(C)C(=O)N4CC4CN(C(=O)C5CC5)C4)c(F)c3)ccc21 [Compound 32, 1-((1-(cyclopropanecarbonyl)azetidin-3-yl)methyl)-2-(2-fluoro-4-(1-methyl-1H-indazol-5-yl)phenyl)-4,4-dimethyl-1H-imidazol-5(4H)-one]
IC50 (A2780 ovarian cells; [3]): > 10000 nM
IC50 (A2780 ovarian cells; [4]): 977 nM
IC50 [1]: 4680 nM
IC50 [2]: 1480 nM

SMILES: CC1(C)N=C(c2ccc(-c3ccc(-c4ccncc4)cc3)cc2)N(CC2CN(C(=O)C3CC3)C2)C1=O [Compound 26, 1-((1-(cyclopropanecarbonyl)azetidin-3-yl)methyl)-4,4-dimethyl-2-(4′-(pyridin-4-yl)-[1,1′-biphenyl]-4-yl)-1H-imidazol-5(4H)-one]
IC50 (A2780 ovarian cells; [3]): > 10000 nM
IC50 (A2780 ovarian cells; [4]): 1950 nM
IC50 [1]: 3390 nM
IC50 [2]: 1000 nM

SMILES: Cn1cc(-c2ccc(-c3ccc(C4=NC(C)(C)C(=O)N4C[C@@H]4CCN(C(=O)C5(C)CC5)C4)c(F)c3)cc2)cn1 [Compound 74, (R)-2-(3-fluoro-4′-(1-methyl-1H-pyrazol-4-yl)-[1,1′-biphenyl]-4-yl)-4,4-dimethyl-1-((1-(1-methylcyclopropanecarbonyl)pyrrolidin-3-yl)methyl)-1H-imidazol-5(4H)-one]
IC50 (A2780 ovarian cells; [3]): > 10000 nM
IC50 (A2780 ovarian cells; [4]): 3.89 nM
IC50 [1]: 11.5 nM
IC50 [2]: ~8.32 nM

SMILES: CC1(C(=O)N2CC(CN3C(=O)C(C)(C)N=C3c3ccc(-c4ccc5cc(F)ccc5c4)cc3F)C2)CC1 [Compound 72, 2-(2-fluoro-4-(6-fluoronaphthalen-2-yl)phenyl)-4,4-dimethyl-1-((1-(1-methylcyclopropanecarbonyl)azetidin-3-yl)methyl)-1H-imidazol-5(4H)-one]
IC50 (A2780 ovarian cells; [3]): 7760 nM
IC50 (A2780 ovarian cells; [4]): ~25.7 nM
IC50 [1]: 295 nM
IC50 [2]: 26.9 nM

More lines, now with the values ahead:

IC50 (A2780 ovarian cells; [3]): > 10000 nM
IC50 (A2780 ovarian cells; [4]): 186 nM
IC50 [1]: 331 nM
IC50 [2]: 174 nM
SMILES: Cn1cc(-c2ccc(-c3ccc(C4=NC(C)(C)C(=O)N4C[C@@H]4CCN(C(=O)C5CC5)C4)cc3)cc2)cn1 [Compound 16, (R)-1-((1-(cyclopropanecarbonyl)pyrrolidin-3-yl)methyl)-4,4-dimethyl-2-(4′-(1-methyl-1H-pyrazol-4-yl)-[1,1′-biphenyl]-4-yl)-1H-imidazol-5(4H)-one]

IC50 (A2780 ovarian cells; [3]): > 10000 nM
IC50 (A2780 ovarian cells; [4]): ~347 nM
IC50 [1]: 1150 nM
IC50 [2]: 417 nM
SMILES: CC1(C)N=C(c2ccc(-c3ccc4cccc(F)c4c3)cc2)N(C[C@@H]2CCN(C(=O)C3CC3)C2)C1=O [Compound 41, (R)-1-((1-(cyclopropanecarbonyl)pyrrolidin-3-yl)methyl)-2-(4-(8-fluoronaphthalen-2-yl)phenyl)-4,4-dimethyl-1H-imidazol-5(4H)-one]

IC50 (A2780 ovarian cells; [3]): > 10000 nM
IC50 (A2780 ovarian cells; [4]): 2000 nM
IC50 [1]: 4370 nM
IC50 [2]: ~1860 nM
SMILES: CC1(c2ccccc2)N=C(c2ccc(-c3ccc4occc4c3)cc2)N(C[C@@H]2CCN(C(=O)C3CC3)C2)C1=O (mixture of isomers) [Compound 5, (4RS)-2-(4-(Benzofuran-5-yl)phenyl)-1-(((R)-1-(cyclopropanecarbonyl)pyrrolidin-3-yl)methyl)-4-methyl-4-phenyl-1H-imidazol-5(4H)-one]

IC50 (A2780 ovarian cells; [3]): > 10000 nM
IC50 (A2780 ovarian cells; [4]): 1230 nM
IC50 [1]: 3390 nM
IC50 [2]: 490 nM
SMILES: CC1(C)N=C(c2ccc(-c3ccc4cc(F)ccc4c3)cc2)N(C[C@@H]2CCN(C(=O)C3CC3)C2)C1=O [Compound 30, (R)-1-((1-(cyclopropanecarbonyl)pyrrolidin-3-yl)methyl)-2-(4-(6-fluoronaphthalen-2-yl)phenyl)-4,4-dimethyl-1H-imidazol-6(4H)-one]

IC50 (A2780 ovarian cells; [3]): > 10000 nM
IC50 (A2780 ovarian cells; [4]): 2510 nM
IC50 [1]: 8910 nM
IC50 [2]: 1820 nM
SMILES: Cn1cc(-c2ccc(-c3ccc(C4=NC(C)(C)C(=O)N4CC4CN(C(=O)C5CC5)C4)cc3)cc2)cn1 [Compound 17, 1-((1-(cyclopropanecarbonyl)azetidin-3-yl)methyl)-4,4-dimethyl-2-(4′-(1-methyl-1H-pyrazol-4-yl)-[1,1′-biphenyl]-4-yl)-1H-imidazol-5(4H)-one]
